# Measured values taken from patent US8138205B2, “Heteroarylalkoxy-substituted quinolone inhibitors of PDE4” (Kalypsys, Inc., priority 2006, dated 2012).
# Experiments:
# Stability Protocol = format: physicochemical; conditions: pH 7.4 sodium phosphate buffer, preliminary shelf life (T90) estimated from stressed samples
# Protocol: About 3 mg of a compound was dissolved in 3 mL of acetonitrile/water mixture (50/50). 100 μL of the stock solution was added to 20 mL each of 0.025 M pH 5.0 sodium acetate buffer (A5.0), 0.025 M pH 5.0 citrate buffer (C5.0) and 0.025 M pH 7.4 sodium phosphate buffer (P7.4). A two mL aliquot of each solution was kept in a glass vial equipped a cap lined with Teflon. Two vials containing the solution were stored at 4° C. or −20° C. as control. Other aliquots were stressed at RT, 45° C. or 75° C. for specified time check points, e.g. 1 day, 1 w, 2 w, 4 w, 8 w,12 w. The stressed samples in duplicate were assayed against the control using HPLC. The results were reported in % degradation. Preliminary shelf life (T90) was estimated assuming the rate of chemical degradation is double when the temperature is up 10° C.
# Solubility Protocol = format: physicochemical; conditions: aqueous buffer, thermodynamic from solid; pH 7.4, 0.1 M sodium phosphate buffer
# Protocol: About 5 mg of a compound was mixed with 500 μL of pH 7.4, 0.1 M sodium phosphate buffer. The mixture was adjusted to the original pH of 7.4 and then mixed overnight or longer via rotary mixing. The sample was checked for pH and then filtered through a 0.45 μm filter. If the pH drifted away, the sample was adjusted to its original pH and mixed for at least 15 minutes before filtration. The filtrate was analyzed using HPLC.
# Rabbits = test: Lacrimal Gland Inflammation-Induced Dry Eye in Rabbits (corneal staining, tear breakup time); format: in vivo; conditions: topical ocular BID, rabbit ConA dry eye
# From the text: A more detailed description of the assay used herein may be found in Naglehout, T J et al. 2005, “Preservation of Tear Film Integrity and Inhibition of Corneal Injury by Dexamethasone in a Rabbit Model of Lacrimal Gland Inflammation-Induced Dry Eye,” J. Ocular Pharm. Ther., 21:2. 139-148, the disclosure of which is hereby incorporated by reference as if written herein in its entirety.
# Rabbits (n=4/group) were randomized into treatment groups and dosed topically BID with maxidex vehicle or test drug beginning one day prior to initiation of dry eye. Each rabbit received bilateral lacrimal gland injections of saline or ConA (300 μg/30 μl) and topical ocular dosing was continued BID throughout the study.
# Desiccation was initiated 1-2 hours following lacrimal gland injection by placing conscious rabbits in the environmental chamber (10-15% humidity/72° F.). Following 72 consecutive hours of exposure to this dry environment, the animals were anesthetized and sutures were placed in each upper and lower eyelid and lifted to form a corneal/conjunctival cup. Methylene blue dye (1 mL, 1% in dH2O) was added to the cup for three minutes and the excess removed by washing with 200 mL BSS®. The contralateral eye was then stained using the same procedure. Rabbits were euthanized immediately following the staining procedure and the eyes were excised. The corneas were isolated with a trephine and the 9.5-mm punch of the cornea was placed in 2 mL acetone/saturated sodium sulfate (7:3, vol./vol.). Absorbance of the extracted dye was determined at 660 nm.
# TBUT was quantified in a separate group of treated animals. TBUT was determined by instilling 5 μL sodium fluorescein into the cul de sac and manually blinking the lids to distribute the fluorescein within the tear film. Under slit lamp observation, the eye was held open and the time whereby one or more black spots or streaks appeared in the precorneal tear film was recorded. The rabbits were euthanized 3 days following ConA injection.
"Stability, pH 7.4 (Stability Protocol)",solubility (Solubility Protocol) [µg/mL],SMILES,Activity at Percent Concentration Tested (Rabbits; 1 × 10^−2 percent),Activity at Percent Concentration Tested (Rabbits; 1 × 10^−4 percent),Activity at Percent Concentration Tested (Rabbits; 1 × 10^−6 percent),Activity at Percent Concentration Tested (Rabbits; 1 percent),Activity at Percent Concentration Tested (Rabbits; 1 × 10^−1 percent)
+ (+ indicates ≧1 Year),≥ 1000,"COc1ccc2c(Nc3c(C)cncc3C)cc(=O)[nH]c2c1OC1CCCC1 [Example 5, 8-(Cyclopentyloxy)-4-(3,5-dimethylpyridin-4-ylamino)-7-methoxyquinolin-2(1H)-one]",Inactive,Inactive,Inactive,–,–
+ (+ indicates ≧1 Year),≥ 1000,"COc1ccc2c(Nc3c(Cl)cncc3Cl)cc(=O)[nH]c2c1OC1CCCC1 [Example 1, 8-(Cyclopentyloxy)-4-(3,5-dichloropyridin-4-ylamino)-7-methoxyquinolin-2(1H)-one]",Inactive,–,–,Inactive,Inactive
